What all share (experiment): Greenhouse herbicidal action, post-emergence
Assay type in all cases: in vivo

One assay deals with Setaria italica. The text has this: (§1) The seeds of the test plants were sown separately for each species. For the post-emergence treatment, the test plants were first grown to a height of from 3 to 15 cm, depending on the plant habit, and only then treated with the active compounds which had been suspended or emulsified in water. The test plants were for this purpose either sown directly and grown in the same containers, or they were first grown separately as seedlings and transplanted into the test containers a few days prior to treatment. […] (active substance). Depending on the species, the plants were kept at 10-25° C. or 20-35° C. The test period extended over from 2 to 4 weeks. During this time, the plants were tended, and their response to the individual treatments was evaluated. Evaluation was carried out using a scale from 0 to 100. 100 means no emergence of the plants, or complete destruction of at least the aerial parts and 0 means no damage, or normal course of growth. The plants used in the greenhouse experiments were of the following species: [table]

For the next assay, the system named is Sinapis alba.
From the text: as §1

In another assay the test system is Abutilon theophrasti.
From the text: as §1

Another assay concerns Chenopodium album. Particulars: 1.0 kg of a.s./ha.
From the text: as §1

For `CNC(=O)C(NC(=O)c1ccccc1C(F)(F)F)C(C)c1ccccc1F` (single isomer, unassigned) [Compound I-32], the “control of Setaria italica” value in the assay with Setaria italica (0.095 kg of a.s./ha) is “very good control”. The “control of Sinapis alba” value in the assay with Sinapis alba (0.095 kg of a.s./ha) is reported as “very good control”.
Consider `CNC(=O)[C@H](Cc1ccccc1C)NC(=O)c1ccccc1C(F)(F)F` [Compound I-19], for which, in the assay on Abutilon theophrasti (0.5 kg of a.s./ha), the “control of Abutilon theophrasti” value is reported as “very good control”. In addition, in the assay with Setaria italica (0.5 kg of a.s./ha), the “control of Setaria italica” value is on record as “very good control”.
As for `CNC(=O)[C@H](Cc1cccc(F)c1)NC(=O)c1cccc(F)c1C(F)(F)F` [Compound I-24], the “control of Abutilon theophrasti” value in the assay with Abutilon theophrasti (0.5 kg of a.s./ha) is reported as “very good control”. Moreover, in the assay on Sinapis alba (0.5 kg of a.s./ha), the “control of Sinapis alba” value was “very good control”.
In the case of `CNC(=O)[C@H](Cc1cccc(F)c1)NC(=O)c1cc(F)ccc1C(F)(F)F` [Compound I-25], in the assay on Abutilon theophrasti (0.5 kg of a.s./ha), the “control of Abutilon theophrasti” value is recorded as “very good control”. Further, in the assay on Setaria italica (0.5 kg of a.s./ha), the “control of Setaria italica” value is on record as “very good control”. In addition, the “control of Sinapis alba” value in the assay on Sinapis alba (0.5 kg of a.s./ha) was “very good control”.
Turning to `CNC(=O)[C@H](Cc1ccccc1C)NC(=O)c1ccc(Cl)c(C(F)F)c1Cl` [Compound I-49], the “control of Abutilon theophrasti” value with Abutilon theophrasti (1.91 kg of a.s./ha) and with Abutilon theophrasti (3.0 kg of a.s./ha) was “very good control” in each case. For the same molecule, the “control of Setaria italica” value in the assay with Setaria italica (1.91 kg of a.s./ha) and in the assay with Setaria italica (3.0 kg of a.s./ha) was “very good control” in each case. For the same molecule, the “control of Sinapis alba” value in the assay with Sinapis alba (1.91 kg of a.s./ha) and in the assay with Sinapis alba (3.0 kg of a.s./ha) was “very good control” throughout.
Take `CNC(=O)[C@H](Cc1ccccc1C)NC(=O)c1ccc(F)cc1C(F)(F)F` [Compound I-51]: the “control of Abutilon theophrasti” value in the assay on Abutilon theophrasti (1.0 kg of a.s./ha) is reported as “very good control”. Further, the “control of Chenopodium album” value with Chenopodium album is “very good control”.
Take `CNC(=O)[C@H](Cc1ccccc1C)NC(=O)c1cccc(F)c1C(F)(F)F` [Compound I-53]: in the assay with Abutilon theophrasti (0.5 kg of a.s./ha), the “control of Abutilon theophrasti” value is listed as “very good control”. Besides, the “control of Setaria italica” value with Setaria italica (0.5 kg of a.s./ha) was “very good control”. Also, the “control of Sinapis alba” value with Sinapis alba (0.5 kg of a.s./ha) is “very good control”.
Take `CNC(=O)C(NC(=O)c1ccc(F)cc1C(F)(F)F)C(C)c1ccccc1F` (stereo not drawn) [II-7]: the “control of Abutilon theophrasti” value in the assay on Abutilon theophrasti (1.0 kg of a.s./ha) was “very good control”. In addition, the “control of Chenopodium album” value in the assay with Chenopodium album is given as “very good control”.
Regarding `CNC(=O)C(Cc1ccccc1)NC(=O)c1ccc(F)cc1C(F)(F)F` (stereo not drawn) [II-91], the “control of Abutilon theophrasti” value in the assay on Abutilon theophrasti (2.0 kg of a.s./ha) is reported as “very good control”. In addition, the “control of Sinapis alba” value in the assay on Sinapis alba (2.0 kg of a.s./ha) is recorded as “very good control”.
As to `CNC(=O)C(Cc1ccccc1C)NC(=O)c1ccccc1S(C)(=O)=O` (stereo not drawn) [II-111], the “control of Abutilon theophrasti” value with Abutilon theophrasti (1.0 kg of a.s./ha) is listed as “very good control”. Besides, in the assay with Setaria italica (1.0 kg of a.s./ha), the “control of Setaria italica” value is “very good control”. Besides, in the assay with Sinapis alba (1.0 kg of a.s./ha), the “control of Sinapis alba” value was “very good control”.
For the molecule “Nα-(2-trifluoromethyl-4-fluorobenzoyl)-2-(1-methyl-1-(2-fluorophenyl))glycine-N-methylamide [II-15]”, the “control of Abutilon theophrasti” value with Abutilon theophrasti (0.5 kg of a.s./ha) was “very good control”. The “control of Setaria italica” value with Setaria italica (0.5 kg of a.s./ha) is on record as “very good control”. In the assay on Sinapis alba (0.5 kg of a.s./ha), the “control of Sinapis alba” value is listed as “very good control”.

The values are drawn from patent publication US20050215435A1, “Phenylalanine derivatives as herbicides” (priority 2002, published 2005).
